The source of these data is patent US11613775B2, “Measuring DNA polymerase fidelity” (Northwestern University, priority 2017, dated 2023).

Like-named read-outs stand apart in the source and are kept apart here.

The conditions of experiment [1]: previously reported; cited from earlier work.
Experiment [2] concerns extension templates (TT, TA, TC, and TG). As to the kind of experiment: Nucleotide imbalance fidelity assay (rare base titration, NGS readout). It is filed as biochemical. An excerpt: Extension templates (TT, TA, TC, and TG) were designed for all four rare base contexts (Table 2). Templates were 100 bp in length and contained a single T, A, C, or G, or Error-Enriched Site (EES), near the middle of the template. Extension templates were designed to contain only three bases, with the exception of the EES (fourth base) and the extension primer-binding site. For each template type, the EES was flanked by 3 degenerate bases before the EES and 3 degenerate bases after the EES in order to create the following sequence context libraries: VVVTVVV, BBBABBB, DDDCDDD, and HHHGHHH (using IUPAC ambiguity codes). Because each of the 6 degenerate sites can be composed of 3 possible bases, each template library contained 729 (3^6) unique sequence contexts surrounding the EES. With the exception of the 6 bases flanking the EES, template sequences within a given library were identical. All templates contained a 3′ dideoxy-C modification to prevent extension from the template strand during a final PCR amplification step. Extension templates were purified via PAGE (Integrated DNA Technologies).
Individual annealing reactions were performed for each template type (TT, TA, TC, TG). Primer/template DNA was prepared by mixing PEXT with each template library in a 1:1.5 molar ratio (70 nM primer: 105 nM template) in a 1× reaction buffer specific to each DNA polymerase being tested (Table 1). The extension primer was annealed to template DNA by incubation at 95° C. for 2 minutes, followed by a −0.1° C./sec ramp until reaching 4° C.
Primer extension reactions were set up in duplicate for each condition being tested. Biological replicate reactions were performed in parallel, with the same annealed primer/template sample used for both replicates. For each DNA polymerase and rare base context of interest, 9 rare base concentrations were tested (log-fold dilutions from 10 μM-0.1 pM) while the concentration of the 3 non-rare bases was held constant at 10 μM (Bioline).
Primer extension reactions consisted of 1 μL of annealing reaction, 1× dNTP stocks ([…]+variable [dRTP]), variable DNA polymerase units, and 1×DNA polymerase reaction buffer in a 10 μL reaction. Extension reaction conditions for DNA polymerases tested are described in Table 1. Extension reactions were incubated for 1 hour and stored at −20° C. until purification. The Fluent Automated Liquid Handling Platform (Tecan) was used to set up all primer extension reactions.
The sample preparation pipeline for NGS was adapted from a previous protocol (Ref. 28; herein incorporated by reference in its entirety). Products from individual rare base extension reactions were column purified in 96-well plate format using the ZR-96 DNA Clean & Concentrator-5 (Deep well format) kit (Zymo Research). Purified DNA products were eluted in 10 μL of water and stored at −20° C. until ligation. Next, a 22 bp universal tag, common sequence 2 (CS2) of the Fluidigm Access Array Barcode Library for Illumina Sequencers (Fluidigm), synthesized as duplex DNA with a 5′ phosphate modification and PAGE purified (Integrated DNA Technologies, Table 2) was blunt-end ligated to the 3′ end of extended products. Ligation reactions were carried out in 10 μL volumes and consisted of 6 μL of purified product, 30 nM CS2 duplex DNA, 1× T4 DNA Ligase Reaction Buffer (New England Biolabs), and 2000 Units of T4 DNA Ligase (New England Biolabs). Ligation reactions were incubated at 16° C. for 16 hours. Ligated products were stored at −20° C. until PCR.
PCR was performed with barcoded primer sets from the Access Array Barcode Library for Illumina Sequencers (Fluidigm) to label extension products from up to 384 individual reactions. Each PCR primer set contained a unique barcode in the reverse primer. From 5′-3′, the forward PCR primer (PE1_CS1) contained a 25 base paired-end Illumina adapter 1 sequence followed by CS1. The binding target of the forward PCR primer was the reverse complement of the CS1 tag built into PEXT. […]

For experiment [3] the following is noted: previously reported; cited from earlier work. This is another data set of the same source.
The conditions of experiment [4]: previously reported; cited from earlier work. This is another data set of the same source.
The conditions of experiment [5]: previously reported; cited from earlier work. The source holds these as a separate data set.
The conditions of experiment [6]: previously reported; cited from earlier work. The source holds these as a separate data set.
For experiment [7] the following is noted: previously reported; cited from earlier work. This is another data set of the same source.
For another experiment, the system named is lacZ template. The settings on record: cited from earlier work.
[8] abbreviates: "C" template context, lowest [dRTP] tested (10^−7 μM).
[9] abbreviates: All Four Contexts, fit of duplicate data from all four template contexts (n = 8), average FC50.
Setting [10] is: BBBABBB template context, n = 2.
Where [11] appears, read: DDDCDDD template context, n = 2.
The mark [12] stands for this setting: HHHGHHH template context, n = 2.
[13] abbreviates: VVVTVVV template context, n = 2.

Regarding “Phi29: high fidelity polymerase with proofreading ability (New England Biolabs)”, the “Error Rate” value in experiment [1] is listed as 0.0000095 errors/bp; in experiment [3], 0.000003 errors/bp. The preferred error type entry was “C:dTTP” in experiment [2] (setting [8]); “C:dATP” in experiment [2] (DDDCDDD context, −1 G); “C:dTTP” in experiment [2] (DDDCDDD context, −1 T). Further, the FC50 in experiment [2] (setting [9]) turned out to be 0.000861 µM; in experiment [2] (setting [10]), 0.000877 µM; in experiment [2] (setting [11]), 0.00125 µM; in experiment [2] (setting [12]), 0.00139 µM; in experiment [2] (setting [13]), 0.000475 µM. The “estimated (FC50-derived) error rate versus mean of the two reported literature error rates” value in experiment [2] (average FC50 converted with Equation 9) is 2.7 fold.

“Taq: widely used commercial DNA polymerase (New England Biolabs)”: the preferred error type entry in experiment [2] ("A" template context, lowest [dRTP] tested (10^−7 μM)) is reported as “A:dATP”; in experiment [2] (setting [8]) it was “C:dATP”; in experiment [2] ("G" template context, lowest [dRTP] tested (10^−7 μM)), “G:dTTP”. The FC50 is 0.00267 µM in experiment [2] (setting [9]); 0.00261 µM in experiment [2] (setting [10]); 0.00215 µM in experiment [2] (setting [11]); 0.00208 µM in experiment [2] (setting [12]); 0.00405 µM in experiment [2] (setting [13]). In addition, the “Error Rate” value in experiment [4] is listed as 0.00018 errors/bp; in experiment [5] it was 0.00011 subs/bp; in experiment [6], 0.00021 errors/bp; in experiment [7], 0.0002 subs/bp.

B1: Sulfolobus solfataricus Dpo4: a close homologue of S. islandicus Dpo4, literature data (protein, UniProt Q97W02 1-352, looked up)
DNA polymerase IV: MIVLFVDFDYFYAQVEEVLNPSLKGKPVVVCVFSGRFEDSGAVATANYEARKFGVKAGIPIVEAKKILPNAVYLPMRKEVYQQVSSRIMNLLREYSEKIEIASIDEAYLDISDKVRDYREAYNLGLEIKNKILEKEKITVTVGISKNKVFAKIAADMAKPNGIKVIDDEEVKRLIRELDIADVPGIGNITAEKLKKLGINKLVDTLSIEFDKLKGMIGEAKAKYLISLARDEYNEPIRTRVRKSIGRIVTMKRNSRNLEEIKPYLFRAIEESYYKLDKRIPKAIHVVAVTEDLDIVSRGRTFPHGISKETAYSESVKLLQKILEEDERKIRRIGVRFSKFIEAIGLDKFFDT
For B1, the error preferences entry in the experiment on lacZ template (at A sites) is given as “A:dATP>A:dCTP>A:dGTP”; in the experiment on lacZ template (at C sites) it was “C:dCTP>C:dATP=C:dTTP”; with lacZ template (at G sites), “G:dTTP>G:dGTP>G:dATP”; in the experiment with lacZ template (at T sites), “T:dGTP>T:dCTP T:dTTP”.
